Measurements reported in US10597388B2, “Pyridazinone herbicides” (FMC CORPORATION, priority 2014, dated 2020).

Legend:
Test in all cases: Test D controlled growth environment herbicide test, pre- and postemergence
Type in all cases: in vivo
[1] = test system: buckwheat, wild (wild buckwheat, Polygonum convolvulus)
In short: (§1)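 Species sown in silt loam and sprayed preemergence, or grown in peat-based medium to 2–18 cm (1- to 4-leaf stage) and sprayed postemergence, with compounds in non-phytotoxic solvent plus surfactant. Visual injury scored versus controls after 14–21 d in a controlled environment, 0 (no effect) to 100 (complete control).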

[2] = test system: pigweed (Amaranthus retroflexus)
In short: as §1

[3] = test system: wheat, spring (spring wheat, Triticum aestivum)
In short: as §1

[4] = test system: field violet (Viola arvensis)
In short: as §1

[5] = test system: foxtail, green (green foxtail, Setaria viridis)
In short: as §1

[6] = test system: blackgrass (Alopecurus myosuroides)
In short: as §1

[7] = test system: barley, spring (spring barley, Hordeum vulgare)
In short: as §1

[8] = test system: canarygrass (Phalaris minor)
In short: as §1

[9] = test system: chamomile (scentless chamomile, Matricaria inodora)
In short: as §1

[10] = test system: oat, wild (wild oat, Avena fatua)
In short: as §1

[11] = test system: radish, wild (wild radish, Raphanus raphanistrum)
In short: as §1

[12] = test system: bluegrass (annual bluegrass, Poa annua)
In short: as §1

[13] = test system: ryegrass, Italian (Italian ryegrass, Lolium multiflorum)
In short: as §1

[14] = Postemergence, 31 g ai/ha, scale 0 to 100 (0 no effect, 100 complete control)
[15] = Postemergence, 125 g ai/ha, visual rating on scale 0 (no effect) to 100 (complete control), 14 to 21 d
[16] = Postemergence, 250 g ai/ha, scale 0 to 100 (0 no effect, 100 complete control)
[17] = Preemergence, 62 g ai/ha, scale 0 to 100 (0 no effect, 100 complete control)
[18] = Preemergence, 125 g ai/ha, scale 0 to 100 (0 no effect, 100 complete control)
[19] = Preemergence, 250 g ai/ha, scale 0 to 100 (0 no effect, 100 complete control)
[20] = postemergence, 62 g ai/ha, scale 0 to 100, 0 no effect, 100 complete control

Cc1ccc(-c2c(O)c(Br)nn(C)c2=O)c2ccccc12 [Compound 52]
Buckwheat, Wild plant response rating [1, 14]: 100 | Plant response rating, Buckwheat, Wild [1, 15]: 100 | Plant response rating, Buckwheat, Wild [1, 16]: 100 | Plant response rating (scale of 0 to 100), Buckwheat, Wild ([1]; Preemergence, 31 g ai/ha): 20 | Plant response rating, Buckwheat, Wild [1, 17]: 20 | Plant response rating, Buckwheat, Wild [1, 18]: 55 | Plant response rating, Buckwheat, Wild [1, 19]: 100 | Plant response rating, Buckwheat, Wild [1, 20]: 100 | Pigweed plant response rating [2, 14]: 35 | Plant response rating, Pigweed [2, 15]: 75 | Plant response rating, Pigweed [2, 16]: 80 | Plant response rating (scale of 0 to 100), Pigweed ([2]; Preemergence, 31 g ai/ha): 60 | Plant response rating, Pigweed [2, 17]: 55 | Plant response rating, Pigweed [2, 18]: 65 | Plant response rating, Pigweed [2, 19]: 90 | Plant response rating, Pigweed [2, 20]: 40 | Wheat, Spring plant response rating [3, 14]: 0 | Plant response rating, Wheat, Spring [3, 15]: 0 | Plant response rating, Wheat, Spring [3, 16]: 5 | Plant response rating (scale of 0 to 100), Wheat, Spring ([3]; Preemergence, 31 g ai/ha): 0 | Plant response rating, Wheat, Spring [3, 17]: 0 | Plant response rating, Wheat, Spring [3, 18]: 0 | Plant response rating, Wheat, Spring [3, 19]: 5 | Plant response rating, Wheat, Spring [3, 20]: 0 | Field Violet plant response rating [4, 14]: 35 | Plant response rating, Field Violet [4, 15]: 75 | Plant response rating, Field Violet [4, 16]: 75 | Plant response rating (scale of 0 to 100), Field Violet ([4]; Preemergence, 31 g ai/ha): 0 | Plant response rating, Field Violet [4, 17]: 10 | Plant response rating, Field Violet [4, 18]: 75 | Plant response rating, Field Violet [4, 19]: 85 | Plant response rating, Field Violet [4, 20]: 65 | Foxtail, Green plant response rating [5, 14]: 5 | Plant response rating, Foxtail, Green [5, 15]: 10 | Plant response rating, Foxtail, Green [5, 16]: 40 | Plant response rating (scale of 0 to 100), Foxtail, Green ([5]; Preemergence, 31 g ai/ha): 0 | Plant response rating, Foxtail, Green [5, 17]: 0 | Plant response rating, Foxtail, Green [5, 18]: 15 | Plant response rating, Foxtail, Green [5, 19]: 35 | Plant response rating, Foxtail, Green [5, 20]: 5 | Blackgrass plant response rating [6, 14]: 10 | Plant response rating, Blackgrass [6, 15]: 15 | Plant response rating, Blackgrass [6, 16]: 40 | Plant response rating (scale of 0 to 100), Blackgrass ([6]; Preemergence, 31 g ai/ha): 20 | Plant response rating, Blackgrass [6, 17]: 20 | Plant response rating, Blackgrass [6, 18]: 65 | Plant response rating, Blackgrass [6, 19]: 65 | Plant response rating, Blackgrass [6, 20]: 15 | Barley, Spring plant response rating [7, 14]: 0 | Plant response rating, Barley, Spring [7, 15]: 5 | Plant response rating, Barley, Spring [7, 16]: 0 | Plant response rating (scale of 0 to 100), Barley, Spring ([7]; Preemergence, 31 g ai/ha): 0 | Plant response rating, Barley, Spring [7, 17]: 0 | Plant response rating, Barley, Spring [7, 18]: 0 | Plant response rating, Barley, Spring [7, 19]: 0 | Plant response rating, Barley, Spring [7, 20]: 0 | Canarygrass plant response rating [8, 14]: 0 | Plant response rating, Canarygrass [8, 15]: 0 | Plant response rating, Canarygrass [8, 16]: 0 | Plant response rating (scale of 0 to 100), Canarygrass ([8]; Preemergence, 31 g ai/ha): 20 | Plant response rating, Canarygrass [8, 17]: 25 | Plant response rating, Canarygrass [8, 18]: 25 | Plant response rating, Canarygrass [8, 19]: 35 | Plant response rating, Canarygrass [8, 20]: 0 | Chamomile plant response rating [9, 14]: 85 | Plant response rating, Chamomile [9, 15]: 100 | Plant response rating, Chamomile [9, 16]: 100 | Plant response rating (scale of 0 to 100), Chamomile ([9]; Preemergence, 31 g ai/ha): 60 | Plant response rating, Chamomile [9, 17]: 100 | Plant response rating, Chamomile [9, 18]: 100 | Plant response rating, Chamomile [9, 19]: 100 | Plant response rating, Chamomile [9, 20]: 100 | Oat, Wild plant response rating [10, 14]: 5 | Plant response rating, Oat, Wild [10, 15]: 5 | Plant response rating, Oat, Wild [10, 16]: 15 | Plant response rating (scale of 0 to 100), Oat, Wild ([10]; Preemergence, 31 g ai/ha): 25 | Plant response rating, Oat, Wild [10, 17]: 25 | Plant response rating, Oat, Wild [10, 18]: 25 | Plant response rating, Oat, Wild [10, 19]: 30 | Plant response rating, Oat, Wild [10, 20]: 5 | Radish, Wild plant response rating [11, 14]: 35 | Plant response rating, Radish, Wild [11, 15]: 80 | Plant response rating, Radish, Wild [11, 16]: 85 | Plant response rating (scale of 0 to 100), Radish, Wild ([11]; Preemergence, 31 g ai/ha): 0 | Plant response rating, Radish, Wild [11, 17]: 15 | Plant response rating, Radish, Wild [11, 18]: 55 | Plant response rating, Radish, Wild [11, 19]: 75 | Plant response rating, Radish, Wild [11, 20]: 65 | Bluegrass plant response rating [12, 14]: 5 | Plant response rating, Bluegrass [12, 15]: 30 | Plant response rating, Bluegrass [12, 16]: 30 | Plant response rating (scale of 0 to 100), Bluegrass ([12]; Preemergence, 31 g ai/ha): 0 | Plant response rating, Bluegrass [12, 17]: 10 | Plant response rating, Bluegrass [12, 18]: 25 | Plant response rating, Bluegrass [12, 19]: 35 | Plant response rating, Bluegrass [12, 20]: 5 | Ryegrass, Italian plant response rating [13, 14]: 40 | Plant response rating, Ryegrass, Italian [13, 15]: 75 | Plant response rating, Ryegrass, Italian [13, 16]: 80 | Plant response rating (scale of 0 to 100), Ryegrass, Italian ([13]; Preemergence, 31 g ai/ha): 85 | Plant response rating, Ryegrass, Italian [13, 17]: 85 | Plant response rating, Ryegrass, Italian [13, 18]: 100 | Plant response rating, Ryegrass, Italian [13, 19]: 98 | Plant response rating, Ryegrass, Italian [13, 20]: 50
